Where two headings read alike, the source gives them in different places.
What was measured:
[1] = tested on: osteoclast differentiation; assay: Inhibitory effects on osteoclast differentiation (bone marrow cell/osteoblast co-culture, TRAP staining); assay type: cell-based, mice; details: for inhibition at 1 µM: Mus musculus, Osteoclast, 168 h, read-out: Inhibition of osteoclast differentiation (%)
Protocol: The effect of the benzamidine derivative of the present invention on osteoclast formation and differentiation process was evaluated via co-culture with an osteoblast.
Tibia was aseptically ectomized from 6 to 8-week-old male ddY mice to harvest bone marrow cells by using a syringe (21G, Korea Green Cross). The bone marrow cells were suspended in 5 mL of an α-MEM medium (Gibco BRL Co., supplemented with sodium bicarbonate (2.0 g/L), streptomycin (100 mg/L) and penicillin ([…]), filtered and then sterilized). The harvested cells were centrifuged at 600×g for 5 minutes to collect the whole quantity. To remove the red blood cells in the bone marrow cells, 3 mL of Tris HCl (0.83% NH4Cl, pH 7.5) was added and well mixed. After centrifugation, the numbers of the eukaryotic cells in the harvested bone marrow cells were counted, and then immediately used for a co-culture system.
The progenitor bone and the parietal bone were aseptically ectomized from 1 to 2-day-old neonatal ICR mice, washed with a phosphate butter solution (PBS), and treated with a mixed enzyme solution (0.2% collagenase and 0.1% dispase) six to seven times (10, 10, 10, 20, 20 and 20 min), and then 3 to 6 groups of the cells, in which a large volume of cells having osteoblastic characteristics were contained, were intensively collected, and washed with medium (serum-free α-MEM). The washed cells were cultured in the α-MEM medium containing 10% FBS for 2 to 3 days. After sub-culturing, the collected cells were used for this experiment, and diluted to a concentration of 1×10^6 cells/mL for storage at −70° C.
The benzamidine derivative of the present invention was dissolved in a sterile distilled water or ethanol to be diluted to a desired concentration. The final volume of the sample added to the cell culture medium was set at a ratio of 1:1000.
The bone marrow cells prepared in the above 1-1 and the osteoblast were co-cultured. Both the bone marrow cells (25,000 cells/cm^2) and the osteoblast (10,000 cells/cm^2) were plated in a 96-well plate using α-MEM medium containing FBS, and then cultured with the samples to be tested for 7 days. Differentiation factors, such as dexamethasone (10^−7 M) and vitamin D (10^−8 M), were also co-added to the medium from the first day of cultivation. The medium was changed with a fresh media containing a mixture of the samples and the differentiation factors every 2 to 3 days.
TRAP was used as a marker to measure the matured osteoclast in consideration of its characteristics showing a positive reaction to a TRAP staining solution.
The TRAP staining solution was prepared in such the manner that 5 mg of naphthol AS-MS phosphate (sigma N-4875) as a substrate and 25 mg of a coloring agent (Fast Red Violet LB salt) were dissolved in N,N-dimethylformamide (about 0.5 mL). 50 ml of a 0.1 N […] buffer solution containing 50 mM tartaric acid (pH 5.0) was added thereto, and the mixture was stored in a refrigerator prior to use as a staining solution.
After culturing the cells for 7 days, the medium was removed from the wells, the cells were once washed with PBS, and then fixed with PBS containing 10% formalin for 2 to 5 min. The cells were fixed again in a mixed solution of ethanol and acetone (1/1) for about 1 min, and dried off. The cells were further treated by the TRAP staining solution for 15 minutes, and washed with water and dried off. The osteoclasts with 3 or more nuclei showing a TRAP-positive reaction were counted under a microscopic examination. Each of tests was confirmed at least three times. The inhibitory effect on osteoclast differentiation of each experimental group, relative to negative controls, was expressed as a percentage (%).

MC3T3-E1 = assay: Cytotoxicity test (MTT), MC3T3-E1; assay type: cell-based; details: 10^−6 M, cultured for 72 hrs, in comparison with the control group
Protocol: (§1) The cytotoxic effect of the benzamidine derivative of the present invention was evaluated by carrying out the experiment described below.
(§2) The test substance was diluted in an appropriate solvent at a concentration of 10^−2 M. This substance was diluted in an appropriate culture medium for the cells used in the cytotoxicity test to a concentration of 10^−6M, and loaded into a 96-well plate in 100 μl per well. The cell lines to be used in the cytotoxicity test were plated on a 96-well plate in a dose of 1.0×10^4 cell/100 μl per well, and cultured for 72 hrs. 25 μl of MTT[3-(4,5-dimethyl-2-thiazolyl)-2,5-diphenyl-2H-tetrazolium bromide] dissolved in PBS (2 mg/mL) were added before 4 hrs of the end of culture. After completion of the reaction, the plates were centrifuged, the medium was discarded and 100 μl of DMSO was added to dissolve formazan. Finally, the absorbance of the developed plates was measured at 540 nm. The survival rates of the cells were expressed as % concentration values in comparison with the control group.

calvaria = assay: Cytotoxicity test (MTT), calvaria; assay type: cell-based; details: 10^−6 M, cultured for 72 hrs, in comparison with the control group
Protocol: as §1, §2

HOS = assay: Cytotoxicity test (MTT), HOS; assay type: cell-based; details: 10^−6 M, cultured for 72 hrs, in comparison with the control group
Protocol: as §1, §2

[2] = 1 μm, 7 days co-culture, TRAP-positive osteoclasts with 3 or more nuclei, relative to negative controls

| SMILES | Inhibition of osteoclast differentiation (%) [1, 2] [%] | Cell survival rate (MC3T3-E1) [%] | Cell survival rate (calvaria) [%] | Cell survival rate (HOS) [%] | inhibition at 1 µM [1, 2] [%] | inhibition at 1 µM [1] [%] |
| --- | --- | --- | --- | --- | --- | --- |
| Cc1nc(-c2ccc(OCCCCCOc3ccc(C(=N)NO)cc3)cc2)c(CNCCCn2ccnc2)s1 [Example 18] | 100 | 99 | 94 | 106 | – | – |
| Cc1nc(-c2ccc(OCCCCCOc3ccc(C(=N)NO)cc3)cc2)c(CN2CCCC2)s1 [Example 19, N-hydroxy-4-{5-[4-(2-methyl-5-pyrrolidin-1-ylmethyl-thiazol-4-yl)-phenoxy]-pentyloxy}-benzamidine] | – | 103 | 97 | 90 | 100 | – |
| CNc1nc(-c2ccc(OCCCCCOc3ccc(C(=N)NO)cc3)cc2)c(N2CCOCC2)s1 [Example 23, N-hydroxy-4-{5-[4-(2-methylamino-5-morpholin-4-yl-thiazol-4-yl)-phenoxy]-pentyloxy}-benzamidine] | – | 92.0 | 95.8 | 104.0 | 58.9 | – |
| CN(Cc1ccncc1)c1nc(-c2ccc(OCCCCCOc3ccc(C(=N)NO)cc3)cc2)c(CN2CCOCC2)s1 [Example 24, N-hydroxy-4-(5-{4-[2-(methyl-pyridin-4-ylmethyl-amino)-5-morpholin-4-ylmethyl-thiazol-4-yl]-phenoxy}-pentyloxy)-benzamidine] | – | 86 | 95 | 112 | – | 100 |
| CN(CCO)c1nc(-c2ccc(OCCCCCOc3ccc(C(=N)NO)cc3)cc2)c(CN2CCOCC2)s1 [Example 25, N-hydroxy-4-[5-(4-{2-[(2-hydroxy-ethyl)-methyl-amino]-5-morpholin-4-ylmethyl-thiazol-4-yl}-phenoxy)-pentyloxy]-benzamidine] | – | 100 | 86 | 86 | – | 100 |
| CCN(C)c1nc(-c2ccc(OCCCCCOc3ccc(C(=N)NO)cc3)cc2)c(CN2CCOCC2)s1 [Example 26, N-hydroxy-4-(5-{4-[2-(ethyl-methyl-amino)-5-morpholin-4-ylmethyl-thiazol-4-yl]-phenoxy}-pentyloxy)-benzamidine] | – | 98 | 107 | 102 | 98 | – |
| CN(Cc1ccccc1)c1nc(-c2ccc(OCCCCCOc3ccc(C(=N)NO)cc3)cc2)c(CN2CCOCC2)s1 [Example 27, N-hydroxy-4-(5-{4-[2-(benzyl-methyl-amino)-5-morpholin-4-ylmethyl-thiazol-4-yl]-phenoxy}-pentyloxy)-benzamidine] | – | 102 | 106 | 104 | 77 | – |
| CN(CCN1CCOCC1)c1nc(-c2ccc(OCCCCCOc3ccc(C(=N)NO)cc3)cc2)c(CN2CCOCC2)s1 [Example 28, N-hydroxy-4-[5-(4-{2-[methyl-(2-morpholin-4-yl-ethyl)-amino]-5-morpholin-4-ylmethyl-thiazol-4-yl}-phenoxy)-pentyloxy]-benzamidine] | – | 11 | 104 | 114 | 100 | – |
| CN(CCN1CCOCC1)c1nc(-c2ccc(OCCCCCOc3ccc(C(=N)NO)cc3)cc2)c(CN2CCSCC2)s1 [Example 29, N-hydroxy-4-[5-(4-{2-[methyl-(2-morpholin-4-yl-ethyl)-amino]-5-thiomorpholin-4-ylmethyl-thiazol-4-yl}-phenoxy)-pentyloxy]-benzamidine] | – | 109 | 99 | 109 | – | 97 |
| COCCN(CCOC)Cc1sc(N(C)CCN2CCOCC2)nc1-c1ccc(OCCCCCOc2ccc(C(=N)NO)cc2)cc1 [Example 30, N-hydroxy-4-[5-(4-{5-{[bis-(2-methoxy-ethyl)-amino]-methyl}-2-[methyl-(2-morpholin-4-yl-ethyl)-amino]-thiazol-4-yl}-phenoxy)-pentyloxy]-benzamidine] | – | 105 | 103 | 107 | – | 93 |
| CN1CCN(Cc2sc(N(C)CCN3CCOCC3)nc2-c2ccc(OCCCCCOc3ccc(C(=N)NO)cc3)cc2)CC1 [Example 31, N-hydroxy-4-(5-{4-[2-[methyl-(2-morpholin-4-yl-ethyl)-amino]-5-(4-methyl-piperazin-1-ylmethyl)-thiazol-4-yl]-phenoxy}-pentyloxy)-benzamidine] | – | 110 | 102 | 101 | 88 | – |
| CC(C)NCc1sc(N(C)CCN2CCOCC2)nc1-c1ccc(OCCCCCOc2ccc(C(=N)NO)cc2)cc1 [Example 32, N-hydroxy-4-[5-(4-{5-(isopropylamino-methyl)-2-[methyl-(2-morpholin-4-yl-ethyl)-amino]-thiazol-4-yl}-phenoxy)-pentyloxy]-benzamidine] | – | 104 | 98 | 106 | 100 | – |
| COCCNCc1sc(N(C)CCN2CCOCC2)nc1-c1ccc(OCCCCCOc2ccc(C(=N)NO)cc2)cc1 [Example 33, N-hydroxy-4-[5-(4-{5-[(2-methoxy-ethylamino)-methyl]-2-[methyl-(2-morpholin-4-yl-ethyl)-amino]-thiazol-4-yl}-phenoxy)-pentyloxy]-benzamidine] | – | 104 | 94 | 110 | – | 100 |
| CNc1sc(C)nc1-c1ccc(OCCCCCOc2ccc(C(=N)NO)cc2)cc1 [Example 37, N-hydroxy-4-{5-[4-(2-methyl-5-methylamino-thiazol-4-yl)-phenoxy]-pentyloxy}-benzamidine] | – | 94.3 | 92.5 | 105.3 | 83.3 | – |
| Cc1nc(-c2ccc(OCCCCCOc3ccc(C(=N)NO)cc3)cc2)c(NC(=O)c2ccncc2)s1 [Example 38, N-hydroxy-4-[5-(4-{2-methyl-5-[(pyridine-4-carbonyl)-amino]-thiazol-4-yl}-phenoxy)-pentyloxy]-benzamidine] | – | 100.0 | 94.6 | 117.6 | 78.6 | – |
| Cc1nc(-c2ccc(OCCCCCOc3ccc(C(=N)NO)cc3)cc2)c(NC(=O)c2cccnc2)s1 [Example 39, N-hydroxy-4-[5-(4-{2-methyl-5-[(pyridine-3-carbonyl)-amino]-thiazol-4-yl}-phenoxy)-pentyloxy]-benzamidine] | – | 95.0 | 86.3 | 92.1 | 65.5 | – |

Reference: patent US20100249402A1, “NOVEL BENZAMIDINE DERIVATIVES, PROCESS FOR THE PREPARATION THEREOF AND PHARMACEUTICAL COMPOSITION FOR PREVENTING OR TREATING OSTEPOROSIS COMPRISING THE SAME” (DONG WHA PHARMACEUTICAL CO. LTD., priority 2007, published 2010)
